Laboratory results taken from US11639353B2, “Cyclobutanes- and azetidine-containing mono and spirocyclic compounds as αV integrin inhibitors” (BRISTOL-MYERS SQUIBB COMPANY, priority 2016, dated 2023).

Legend:
Conditions in all cases: alternatively SPA-based assay
human αVβ3 = human αVβ3 (Homo sapiens, UniProt P05106+P06756); experiment: human αVβ3 HTRF binding assay
Description: (§1) All binding assays used the HTRF (homogeneous time resolved fluorescence) technology from Cisbio International, therefore all assays are described as HTRF binding assays. The assay results for the Examples are listed above together with the characterization data. The HTRF binding assays are established for the following integrins: human αVβ6, human αVβ1, human αVβ3, human αVβ5, and human αVβ8. All assays used the following assay buffer: 20 mM Tris, pH 7.4, 1 mM MgCl2, 1 mM MnCl2, 0.01% Tween 20, and 0.01% BSA. Alternatively, a SPA-based assay was used for evaluation of receptor binding.
(§2) The SPA-based assay was carried out according to the protocol and procedures similar to the ones described in the following reference with appropriate modifications to agents and ligands which are readily understood by one skilled in the art: Pachter J A, Zhang R, Mayer-Ezell R., “Scintillation proximity assay to measure binding of soluble fibronectin to antibody-captured αVβ1 integrin” Anal Biochem. 1995 Sep. 1; 230(1):101-7.

human αVβ6 = molecular target: T1, human αVβ6 (Homo sapiens, UniProt P06756+P18564); experiment: human αVβ6 HTRF binding assay
T1 construct: purchased R & D systems 3817-AV
T1 sequence (P06756 31-992 limits assumed): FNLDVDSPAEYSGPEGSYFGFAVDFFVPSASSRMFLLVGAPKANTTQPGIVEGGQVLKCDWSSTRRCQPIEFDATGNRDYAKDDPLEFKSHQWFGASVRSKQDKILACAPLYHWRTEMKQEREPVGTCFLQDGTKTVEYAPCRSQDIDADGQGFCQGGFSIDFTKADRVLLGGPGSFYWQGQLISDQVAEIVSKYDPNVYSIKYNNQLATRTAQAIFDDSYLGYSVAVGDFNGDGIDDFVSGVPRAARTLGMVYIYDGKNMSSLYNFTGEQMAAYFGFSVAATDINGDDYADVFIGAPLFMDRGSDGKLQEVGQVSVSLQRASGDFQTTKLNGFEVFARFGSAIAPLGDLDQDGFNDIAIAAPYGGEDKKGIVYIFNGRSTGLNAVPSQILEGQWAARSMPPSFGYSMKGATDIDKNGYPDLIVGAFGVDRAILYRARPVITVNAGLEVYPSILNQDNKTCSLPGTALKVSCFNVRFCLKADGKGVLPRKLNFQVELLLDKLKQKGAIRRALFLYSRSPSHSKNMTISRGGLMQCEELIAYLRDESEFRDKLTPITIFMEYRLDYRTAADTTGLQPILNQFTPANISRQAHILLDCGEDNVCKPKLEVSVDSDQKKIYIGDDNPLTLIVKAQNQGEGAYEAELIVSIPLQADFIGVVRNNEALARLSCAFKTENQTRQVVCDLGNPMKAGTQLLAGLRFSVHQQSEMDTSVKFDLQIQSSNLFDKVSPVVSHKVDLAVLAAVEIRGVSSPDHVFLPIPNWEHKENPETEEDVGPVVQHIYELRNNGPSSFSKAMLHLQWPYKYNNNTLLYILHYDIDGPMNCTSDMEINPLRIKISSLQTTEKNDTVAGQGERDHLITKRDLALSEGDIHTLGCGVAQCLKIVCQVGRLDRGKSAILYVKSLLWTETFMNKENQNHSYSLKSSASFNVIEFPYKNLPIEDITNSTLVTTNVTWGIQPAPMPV
T1 sequence (P18564 22-707 limits assumed): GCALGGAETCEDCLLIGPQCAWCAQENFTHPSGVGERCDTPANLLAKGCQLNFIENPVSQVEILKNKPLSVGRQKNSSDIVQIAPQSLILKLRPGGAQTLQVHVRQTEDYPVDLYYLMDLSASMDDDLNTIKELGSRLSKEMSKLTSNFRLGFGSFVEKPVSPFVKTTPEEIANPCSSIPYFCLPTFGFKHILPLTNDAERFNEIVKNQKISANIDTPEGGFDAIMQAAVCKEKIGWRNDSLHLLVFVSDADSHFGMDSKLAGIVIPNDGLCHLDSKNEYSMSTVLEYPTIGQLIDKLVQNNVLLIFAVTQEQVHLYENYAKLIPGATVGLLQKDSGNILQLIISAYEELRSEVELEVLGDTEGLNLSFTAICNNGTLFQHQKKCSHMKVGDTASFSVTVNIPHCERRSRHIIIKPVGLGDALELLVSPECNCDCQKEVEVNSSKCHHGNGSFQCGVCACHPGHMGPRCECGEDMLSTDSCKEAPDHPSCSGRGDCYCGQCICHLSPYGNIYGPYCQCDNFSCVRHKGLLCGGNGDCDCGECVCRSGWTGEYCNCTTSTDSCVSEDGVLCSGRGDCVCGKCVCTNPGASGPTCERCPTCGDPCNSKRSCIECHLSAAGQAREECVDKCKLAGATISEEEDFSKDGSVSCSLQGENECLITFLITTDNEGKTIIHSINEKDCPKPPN
Summary of the method: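 Biotinylated recombinant human αVβ6 (1.25 nM final) incubated with FITC-fibronectin (5 nM final) 1 h at RT, then streptavidin-terbium (0.625 nM final) added and left overnight at RT in the dark before HTRF reading. Buffer: 20 mM Tris pH 7.4, 1 mM MgCl2, 1 mM MnCl2, 0.01% Tween 20, 0.01% BSA.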

human αVβ8 = human αVβ8 (Homo sapiens, UniProt P06756+P26012); experiment: human αVβ8 HTRF binding assay
human αVβ8, sequence (P06756 31-992 limits assumed): as the sequence (P06756 31-992 limits assumed) above
human αVβ8, sequence (P26012 43-684 limits assumed): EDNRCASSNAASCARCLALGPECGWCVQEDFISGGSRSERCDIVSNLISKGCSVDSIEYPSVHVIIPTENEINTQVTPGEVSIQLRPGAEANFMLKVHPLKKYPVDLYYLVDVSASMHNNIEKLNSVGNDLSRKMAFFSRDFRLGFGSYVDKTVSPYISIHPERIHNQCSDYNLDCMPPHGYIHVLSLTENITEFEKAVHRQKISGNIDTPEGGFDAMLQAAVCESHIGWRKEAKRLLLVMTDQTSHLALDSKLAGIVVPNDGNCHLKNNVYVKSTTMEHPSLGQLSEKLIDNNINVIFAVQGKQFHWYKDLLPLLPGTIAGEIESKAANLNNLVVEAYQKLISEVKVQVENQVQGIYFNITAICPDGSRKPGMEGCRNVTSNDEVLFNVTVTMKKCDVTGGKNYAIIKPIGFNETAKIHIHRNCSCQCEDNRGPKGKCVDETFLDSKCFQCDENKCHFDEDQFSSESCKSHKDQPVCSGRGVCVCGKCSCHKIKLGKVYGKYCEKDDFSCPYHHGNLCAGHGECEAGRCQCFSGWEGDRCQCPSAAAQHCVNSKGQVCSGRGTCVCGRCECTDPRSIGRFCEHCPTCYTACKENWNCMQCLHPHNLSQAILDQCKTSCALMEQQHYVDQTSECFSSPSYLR
Description: as §1, §2

human αVβ1 = human αVβ1 (Homo sapiens, UniProt P05556+P06756); experiment: human αVβ1 HTRF binding assay
human αVβ1, sequence (P06756 31-992 limits assumed): as the sequence (P06756 31-992 limits assumed) above
human αVβ1, sequence (P05556 21-728 limits assumed): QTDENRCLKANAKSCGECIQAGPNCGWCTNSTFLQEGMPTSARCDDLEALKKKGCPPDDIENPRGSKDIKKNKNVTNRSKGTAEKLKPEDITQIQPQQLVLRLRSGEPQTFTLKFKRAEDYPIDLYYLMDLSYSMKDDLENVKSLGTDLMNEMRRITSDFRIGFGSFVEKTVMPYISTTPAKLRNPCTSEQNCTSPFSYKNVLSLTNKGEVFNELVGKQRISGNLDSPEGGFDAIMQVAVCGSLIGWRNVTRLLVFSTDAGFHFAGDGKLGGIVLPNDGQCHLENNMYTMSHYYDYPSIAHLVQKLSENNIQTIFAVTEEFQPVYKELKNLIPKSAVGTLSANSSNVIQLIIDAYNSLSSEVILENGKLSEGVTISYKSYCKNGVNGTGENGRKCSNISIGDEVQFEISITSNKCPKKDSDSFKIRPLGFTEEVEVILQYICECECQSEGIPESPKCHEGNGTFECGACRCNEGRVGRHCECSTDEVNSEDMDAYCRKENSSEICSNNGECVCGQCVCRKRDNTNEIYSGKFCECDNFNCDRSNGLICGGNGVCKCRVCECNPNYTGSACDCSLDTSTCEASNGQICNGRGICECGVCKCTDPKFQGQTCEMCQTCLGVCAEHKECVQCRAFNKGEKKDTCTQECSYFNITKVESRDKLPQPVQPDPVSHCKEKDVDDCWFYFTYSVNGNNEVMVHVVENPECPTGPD
Description: as §1, §2

human αVβ5 = human αVβ5 (Homo sapiens, UniProt P06756+P18084); experiment: human αVβ5 HTRF binding assay
human αVβ5, sequence (P06756 31-992 limits assumed): as the sequence (P06756 31-992 limits assumed) above
human αVβ5, sequence (P18084 24-719 limits assumed): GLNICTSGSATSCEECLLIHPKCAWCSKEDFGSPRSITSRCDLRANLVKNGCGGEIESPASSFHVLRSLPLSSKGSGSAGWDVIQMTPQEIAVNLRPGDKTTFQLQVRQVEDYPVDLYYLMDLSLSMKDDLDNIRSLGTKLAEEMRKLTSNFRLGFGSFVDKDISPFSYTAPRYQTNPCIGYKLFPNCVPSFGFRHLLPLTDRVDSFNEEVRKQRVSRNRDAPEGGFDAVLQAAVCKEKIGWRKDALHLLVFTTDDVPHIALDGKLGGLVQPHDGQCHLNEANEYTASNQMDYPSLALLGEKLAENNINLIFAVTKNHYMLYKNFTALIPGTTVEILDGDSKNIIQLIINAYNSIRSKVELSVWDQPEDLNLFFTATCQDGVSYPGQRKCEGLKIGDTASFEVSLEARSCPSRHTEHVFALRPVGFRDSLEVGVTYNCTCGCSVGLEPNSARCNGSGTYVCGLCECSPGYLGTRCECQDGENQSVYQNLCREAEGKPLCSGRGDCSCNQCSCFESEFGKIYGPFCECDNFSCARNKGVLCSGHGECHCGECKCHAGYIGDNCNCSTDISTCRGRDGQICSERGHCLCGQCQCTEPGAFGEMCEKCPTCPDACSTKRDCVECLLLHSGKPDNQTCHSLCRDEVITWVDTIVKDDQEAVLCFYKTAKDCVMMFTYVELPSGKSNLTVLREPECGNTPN
Description: as §1, §2

human αVβ3, sequence (P06756 31-992 limits assumed): as the sequence (P06756 31-992 limits assumed) above
human αVβ3, sequence (P05106 27-718 limits assumed): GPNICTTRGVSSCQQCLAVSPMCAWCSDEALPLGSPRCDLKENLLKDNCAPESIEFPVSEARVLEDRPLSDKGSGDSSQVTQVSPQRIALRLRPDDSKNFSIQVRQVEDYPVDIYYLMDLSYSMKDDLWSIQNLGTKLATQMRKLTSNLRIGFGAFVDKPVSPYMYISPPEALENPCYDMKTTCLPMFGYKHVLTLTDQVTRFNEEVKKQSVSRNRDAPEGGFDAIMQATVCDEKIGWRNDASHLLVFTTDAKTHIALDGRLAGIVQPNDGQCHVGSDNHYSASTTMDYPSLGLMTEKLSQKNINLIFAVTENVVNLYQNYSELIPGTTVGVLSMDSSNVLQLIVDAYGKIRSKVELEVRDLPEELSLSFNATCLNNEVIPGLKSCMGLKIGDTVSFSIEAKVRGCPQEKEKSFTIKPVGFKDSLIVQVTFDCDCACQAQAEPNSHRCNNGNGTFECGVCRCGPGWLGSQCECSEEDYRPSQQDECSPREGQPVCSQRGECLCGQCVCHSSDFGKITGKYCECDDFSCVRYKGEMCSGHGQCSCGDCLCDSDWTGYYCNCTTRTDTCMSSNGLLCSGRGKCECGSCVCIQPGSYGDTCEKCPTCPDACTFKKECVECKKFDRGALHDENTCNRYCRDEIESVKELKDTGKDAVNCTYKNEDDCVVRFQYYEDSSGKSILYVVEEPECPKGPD

| SMILES | IC50 (human αVβ3) | IC50 (human αVβ6) | IC50 (human αVβ8) | IC50 (human αVβ1) | IC50 (human αVβ5) |
| --- | --- | --- | --- | --- | --- |
| Cc1ncc([C@H](CC(=O)O)NC(=O)[C@H]2C[C@H](CCc3ccc4c(n3)NCCC4)C2)cn1 [Example 86] | 2.7 nM | 1.5 nM | 790 nM |  |  |
| Cc1ncc([C@H](CC(=O)O)N2CC(CCCCc3ccc4c(n3)NCCC4)C2)cn1 [Example 26, (S)-3-(2-Methylpyrimidin-5-yl)-3-(3-(4-(5,6,7,8-tetrahydro-1,8-naphthyridin-2-yl)butyl)azetidin-1-yl)propanoic acid] | 1.76 nM | 1.11 nM |  | 8630 nM | 2 nM |
| O=C(O)C[C@H](NC(=O)[C@H]1C[C@H](CCc2ccc3c(n2)NCCC3)C1)c1cncnc1 [Example 90] | 120 nM | 1.7 nM | 1100 nM | 520 nM |  |
| Cc1cc(C)c(S(=O)(=O)N[C@@H](CNC(=O)[C@H]2C[C@@H](CCc3ccc4c(n3)NCCC4)C2)C(=O)O)c(C)c1 [Example 51] | 2.1 nM | 0.33 nM | 15 nM |  | 0.44 nM |
| COc1ccc([C@H](CC(=O)O)NC(=O)C2CC(C(Cc3ccc4c(n3)NCCC4)NS(=O)(=O)c3ccc(C)cc3)C2)cc1F (stereo partly drawn) [Example 25, (3S)-3-(3-Fluoro-4-methoxyphenyl)-3-(3-(1-(4-methylphenylsulfonamido)-2-(5,6,7,8-tetrahydro-1,8-naphthyridin-2-yl)ethyl)cyclobutanecarboxamido)propanoic acid] |  | 3 nM |  |  |  |
| COc1ccc(C(CC(=O)O)C2CC(NCCCc3ccc4c(n3)NCCC4)C2)cc1F (stereo not drawn) [Example 126] |  | 4.18 nM |  |  |  |
| CC(=O)N(C1CN(CCCc2ccc3c(n2)NCCC3)C1)[C@@H](CC(=O)O)c1cc(Cl)cc(Cl)c1 [Example 21, (S)-3-(3,5-Dichlorophenyl)-3-(N-(1-(3-(5,6,7,8-tetrahydro-1,8-naphthyridin-2-yl)propyl)azetidin-3-yl)acetamido)propanoic acid] |  | 9.8 nM |  |  |  |
| O=C(N[C@@H](CNC(=O)C1CC2(C1)CN(CCc1ccc3c(n1)NCCC3)C2)C(=O)O)OCc1ccccc1 [Example 41] |  | 9.3 nM |  |  |  |
| CCOC(=O)C[C@H](NC(=O)C1CC2(C1)CN(CCc1ccc3c(n1)NCCC3)C2)c1ccc(OC)c(F)c1 [Example 31] |  | 230 nM |  |  |  |
| COc1ccc([C@H](CC(=O)O)N2CC(CCCCc3ccc4c(n3)NCCC4)C2)cc1F [Example 27, (S)-3-(3-Fluoro-4-methoxyphenyl)-3-(3-(4-(5,6,7,8-tetrahydro-1,8-naphthyridin-2-yl)butyl)azetidin-1-yl)propanoic acid] |  | 0.58 nM | 11 nM |  |  |
| O=C(N[C@@H](CNC(=O)C1CN(CCc2ccc3c(n2)NCCC3)C1)C(=O)O)OCc1ccccc1 [Example 43] |  | 0.4 nM |  |  |  |
| Cc1ncc([C@@H](CC(=O)O)N2CC(OCCCc3ccc4c(n3)NCCC4)C2)cn1 [example 132, (R)-3-(2-methylpyrimidin-5-yl)-3-(3-(3-(5,6,7,8-tetrahydro-1,8-naphthyridin-2-yl)propoxy)azetidin-1-yl)propanoic acid] |  | 25 nM |  |  |  |
| O=C(N[C@@H](COC1CN(CCCc2ccc3c(n2)NCCC3)C1)C(=O)O)OCc1ccccc1 [Example 10, N-((Benzyloxy)carbonyl)-O-(1-(3-(5,6,7,8-tetrahydro-1,8-naphthyridin-2-yl)propyl)azetidin-3-yl)-L-serine] |  | 0.8 nM |  |  |  |
| COc1ccc([C@H](CC(=O)O)NC(=O)C2CC3(C2)CN(CCCc2ccc4c(n2)NCCC4)C3)cn1 [Example 32] |  | 130 nM |  |  |  |
| COc1ccc([C@H](CC(=O)O)NC(=O)[C@H]2C[C@@H](Cc3ccc4c(n3)NCCC4)C2)cc1F [Example 201, (S)-3-(3-fluoro-4-methoxyphenyl)-3-((1s,3R)-3-((5,6,7,8-tetrahydro-1,8-naphthyridin-2-yl)methyl)cyclobutane-1-carboxamido)propanoic acid] |  | 3.2 nM |  |  |  |
| O=C(O)C[C@@H](c1cc(Cl)cc(Cl)c1)N1CC(CCCCc2ccc3c(n2)NCCC3)C1=O (stereo partly drawn) [Example 108] |  | 0.72 nM |  |  |  |
| Cc1ncc(C(CC(=O)O)N2CC3(CC(Cc4ccc5c(n4)NCCC5)C3)C2)cn1 (stereo not drawn) [Example 209, 3-(2-methylpyrimidin-5-yl)-3-(6-((5,6,7,8-tetrahydro-1,8-naphthyridin-2-yl)methyl)-2-azaspiro[3.3]heptan-2-yl)propanoic acid] |  | 6.8 nM |  |  |  |
| O=C(O)C[C@H](NC(=O)[C@H]1C[C@@H](CCc2ccc3c(n2)NCCC3)C1)c1cnc2ccccc2c1 [Example 85] | 2.1 nM | 0.68 nM | 140 nM | 330 nM |  |
| O=C(O)C[C@H](NC(=O)[C@H]1C[C@@H](CCc2ccc3c(n2)NCCC3)C1)c1ccc2c(c1)OCC2 [Example 89] | 1.5 nM | 2.2 nM | 250 nM |  |  |
| O=C(N[C@@H](CNC(=O)[C@H]1C[C@@H](Cc2ccc3c(n2)NCCC3)C1)C(=O)O)OCC1CCC1 [Example 199] |  | 2.2 nM |  |  |  |
| COc1ccc([C@H](CC(=O)O)NC(=O)C2(F)CN(CCc3ccc4c(n3)NCCC4)C2)cc1F [Example 44] |  | 0.6 nM |  |  |  |
| O=C(N[C@@H](CNC(=O)[C@H]1C[C@@H](Cc2ccc3c(n2)NCCC3)C1)C(=O)O)OCc1cccc(F)c1 (relative stereo) [Example 197] |  | 197 nM |  |  |  |
| COc1ccc([C@H](CC(=O)O)NC(=O)C2CC3(C2)CN(CCc2ccc4c(n2)NCCC4)C3)cc1F [Example 39] |  | 8.4 nM |  |  |  |
| COc1ccc(C(CC(=O)O)C2CC3(C2)CN(CCc2ccc4c(n2)NCCC4)C3)cn1 (stereo not drawn) [Example 100] |  | 2.4 nM |  |  |  |
| O=C(O)C[C@H](NC1CN(CCCc2ccc3c(n2)NCCC3)C1)c1cc(Cl)cc(Cl)c1 [Example 74] |  | 0.5 nM |  |  |  |
| COc1ccc([C@H](CC(=O)O)N2CC(CCCc3ccc4c(n3)NCCC4)C2)cn1 [Example 169] |  | 4 nM |  |  |  |
| CCCOC(=O)N[C@@H](CC(=O)N1CC(CCc2ccc3c(n2)NCCC3)C1)C(=O)O [Example 175] |  | 735 nM |  |  |  |
| COc1ccc([C@@H](CC(=O)O)N2CC(OCCCc3ccc4c(n3)NCCC4)C2)cc1F [Example 137, (R)-3-(3-fluoro-4-methoxyphenyl)-3-(3-(3-(5,6,7,8-tetrahydro-1,8-naphthyridin-2-yl)propoxy)azetidin-1-yl)propanoic acid] |  | 160 nM |  |  |  |

Further lines, results first:

| IC50 (human αVβ3) | IC50 (human αVβ6) | IC50 (human αVβ8) | IC50 (human αVβ1) | IC50 (human αVβ5) | SMILES |
| --- | --- | --- | --- | --- | --- |
| 2.4 nM | 2.23 nM | 110 nM | 329 nM |  | O=C(O)C[C@@H](c1ccc2c(c1)OCC2)N1CC(CCCCc2ccc3c(n2)NCCC3)C1=O (stereo partly drawn) [Example 104] |
| 2.7 nM | 0.64 nM | 270 nM | 87.5 nM | 0.47 nM | COc1ccc([C@H](CC(=O)O)NC(=O)[C@H]2C[C@H](CCc3ccc4c(n3)NCCC4)C2)cn1 [Example 59] |
| 2.4 nM | 0.52 nM | 130 nM | 38 nM | 1.8 nM | COc1ccc([C@H](CC(=O)O)NC(=O)[C@H]2C[C@H](CCc3ccc4c(n3)NCCC4)C2)cc1F [Example 53] |
| 3.8 nM | 0.76 nM | 9.4 nM |  | 2 nM | Cc1cc(C)c(S(=O)(=O)N[C@@H](CNC(=O)C2CN(CCc3ccc4c(n3)NCCC4)C2)C(=O)O)c(C)c1 [Example 36] |
|  | 2.9 nM |  |  |  | COc1ncc([C@H](CC(=O)O)N2CC(CCCCc3ccc4c(n3)NCCC4)C2)cn1 [Example 156] |
|  | 2.4 nM |  |  |  | COc1ccc([C@H](CC(=O)O)N2CC(F)(CCCCc3ccc4c(n3)NCCC4)C2)cn1 [Example 163] |
|  | 6.2 nM |  |  |  | O=C(O)C[C@H](NC(=O)N1CC(CCc2ccc3c(n2)NCCC3)C1)c1cncnc1 [Example 121] |
|  | 0.85 nM |  |  |  | CC1(CCCCc2ccc3c(n2)NCCC3)CN([C@@H](CC(=O)O)c2ccc(F)c(F)c2)C1 [Example 161] |
|  | 0.53 nM |  |  |  | CN(C1CN(CCCc2ccc3c(n2)NCCC3)C1)[C@@H](CC(=O)O)c1cc(Cl)cc(Cl)c1 [Example 98] |
|  | 14 nM |  |  |  | O=C(O)CC(c1cccc(N2CCOCC2)c1)C1CC(CCCCc2ccc3c(n2)NCCC3)C1 (stereo not drawn) [Example 146, 3-(3-Morpholinophenyl)-3-(3-(4-(5,6,7,8-tetrahydro-1,8-naphthyridin-2-yl)butyl)cyclobutyl)propanoic acid] |
|  | 4.6 nM |  |  |  | CC(=O)N(CCCc1ccc2c(n1)NCCC2)C1CC(C(CC(=O)O)c2cccc(N3CCOCC3)c2)C1 (stereo not drawn) [Example 149, 3-(3-Morpholinophenyl)-3-(3-(N-(3-(5,6,7,8-tetrahydro-1,8-naphthyridin-2-yl)propyl)acetamido)cyclobutyl)propanoic acid] |
|  | 2 nM |  |  |  | CC(C)(C)c1cc(Br)cc([C@H](CC(=O)O)NC(=O)C2CC3(C2)CN(CCc2ccc4c(n2)NCCC4)C3)c1 [Example 34] |
|  | 3300 nM |  |  |  | COc1ccc(C(NC(=O)C2CC(CCc3ccc4c(n3)NCCC4)C2)C(C)(C)C(=O)O)cn1 (single isomer, unassigned) [Example 190, 3-(6-methoxypyridin-3-yl)-2,2-dimethyl-3-(3-(2-(5,6,7,8-tetrahydro-1,8-naphthyridin-2-yl)ethyl)cyclobutane-1-carboxamido)propanoic acid] |
